Species: Rattus norvegicus
Test: Open TG-GATES - Regimen: Daily Repeat
Assay type: toxicity, organism-based, Sprague-Dawley
Parameters: regimen Daily Repeat, gender Male, age 6 weeks
Details: in vivo, po, route gavage; for gamma-GTP / ALP / ALT / AST / BUN / CRE / DBIL / GLC / IP / K / LDH / Na / PL / RALB / TBIL / TC / TG / TP: tissue Plasma; for APTT / Bas / Eos / Fbg / Hb / Ht / Lym / MCH / MCHC / MCV / Mono / Neu / Plat / RBC / Ret / WBC: tissue Blood; for KIDNEY_L / KIDNEY_R / KIDNEY_TOTAL: tissue Kidney
[1] = 10 mg/kg, 72 h, dose level Low, time 3 day
[2] = 10 mg/kg, […], dose level Low, time 7 day
[3] = 10 mg/kg, […], dose level Low, time 14 day
[4] = 10 mg/kg, […], dose level Low, time 28 day

CN(C)CCC=C1c2ccccc2COc2ccccc21 [DOXEPIN] was tested, and the gamma-GTP (0 mg/kg, […], dose level Control, time 28 day) was 1 IU/L, the TERMINAL_BW [1] was 218 g and the APTT [1] was 16.2 s. The Bas [1] was 0%, the Eos [1] was 1% and the Fbg [1] was 283.2 mg/dL. The Hb [1] was 13.4 g/dL, the Ht [1] was 39.3% and the Lym [1] was 78%. For the same compound, the MCH [1] was 21.5 pg, the MCHC [1] was 34.2% and the MCV [1] was 62.8 fL. For the same compound, the Mono [1] was 2.8%, the Neu [1] was 18% and the Plat [1] was 107 x10_4/uL. The RBC [1] was 625.6 x10_4/ul, the Ret [1] was 7.4% and the WBC [1] was 67.2 x10_2/uL. The KIDNEY_L [1] was 0.9 g, the KIDNEY_R [1] was 0.9 g and the KIDNEY_TOTAL [1] was 1.9 g. For the same compound, the ALP [1] was 1531.8 IU/L, the ALT [1] was 42.2 IU/L and the AST [1] was 70.8 IU/L. It also gave a BUN [1] of 15.4 mg/dL, a CRE [1] of 0.2 mg/dL and a DBIL [1] of 0.024 mg/dL. For the same compound, the GLC [1] was 191 mg/dL, the IP [1] was 7.7 mg/dL and the K [1] was 4.3 meq/L. For the same compound, the LDH [1] was 74.2 IU/L, the Na [1] was 141.6 meq/L and the PL [1] was 156.8 mg/dL. The RALB [1] was 2.7 g/dL, the TBIL [1] was 0.044 mg/dL and the TC [1] was 85.8 mg/dL. It also gave a TG [1] of 100.8 mg/dL, a TP [1] of 5.8 g/dL and a gamma-GTP [1] of 1.4 IU/L. For the same compound, the TERMINAL_BW [2] was 254.8 g, the TERMINAL_BW [3] was 315.1 g and the TERMINAL_BW [4] was 390 g. For the same compound, the APTT [2] was 16.3 s, the Bas [2] was 0% and the Eos [2] was 1%. The Fbg [2] was 283.4 mg/dL, the Hb [2] was 13.5 g/dL and the Ht [2] was 38.8%. The Lym [2] was 79.8%, the MCH [2] was 21.5 pg and the MCHC [2] was 34.8%. It also gave an MCV [2] of 61.8 fL, a Mono [2] of 3% and a Neu [2] of 15.6%. The Plat [2] was 115.8 x10_4/uL, the RBC [2] was 627.6 x10_4/ul and the Ret [2] was 6%. For the same compound, the WBC [2] was 88.3 x10_2/uL, the APTT [3] was 16.8 s and the Bas [3] was 0%. For the same compound, the Eos [3] was 1.2%, the Fbg [3] was 296.8 mg/dL and the Hb [3] was 14.1 g/dL. The Ht [3] was 40.5%, the Lym [3] was 75.4% and the MCH [3] was 21.5 pg. The MCHC [3] was 34.7%, the MCV [3] was 61.8 fL and the Mono [3] was 3%. For the same compound, the Neu [3] was 20%, the Plat [3] was 106.2 x10_4/uL and the RBC [3] was 656.4 x10_4/ul. It also gave a Ret [3] of 4.7%, a WBC [3] of 76.1 x10_2/uL and an APTT [4] of 16.2 s. It also gave a Bas [4] of 0%, an Eos [4] of 1.4% and a Fbg [4] of 283.8 mg/dL. For the same compound, the Hb [4] was 14.6 g/dL, the Ht [4] was 41.3% and the Lym [4] was 81.4%. For the same compound, the MCH [4] was 19.8 pg, the MCHC [4] was 35.4% and the MCV [4] was 56 fL. For the same compound, the Mono [4] was 2%, the Neu [4] was 14.6% and the Plat [4] was 109.1 x10_4/uL. For the same compound, the RBC [4] was 737.6 x10_4/ul, the Ret [4] was 2.4% and the WBC [4] was 71.4 x10_2/uL. The KIDNEY_L [2] was 1.1 g, the KIDNEY_R [2] was 1.1 g and the KIDNEY_TOTAL [2] was 2.2 g. For the same compound, the KIDNEY_L [3] was 1.2 g, the KIDNEY_R [3] was 1.2 g and the KIDNEY_TOTAL [3] was 2.4 g. The KIDNEY_L [4] was 1.3 g, the KIDNEY_R [4] was 1.3 g and the KIDNEY_TOTAL [4] was 2.6 g. It also gave an ALP [2] of 1775.6 IU/L, an ALT [2] of 51.6 IU/L and an AST [2] of 84.2 IU/L. The BUN [2] was 19.2 mg/dL, the CRE [2] was 0.2 mg/dL and the DBIL [2] was 0.024 mg/dL. For the same compound, the GLC [2] was 191.2 mg/dL, the IP [2] was 7.5 mg/dL and the K [2] was 4.3 meq/L. The LDH [2] was 148.2 IU/L, the Na [2] was 142 meq/L and the PL [2] was 156 mg/dL. The RALB [2] was 2.6 g/dL, the TBIL [2] was 0.04 mg/dL and the TC [2] was 81 mg/dL. For the same compound, the TG [2] was 135.2 mg/dL, the TP [2] was 5.8 g/dL and the gamma-GTP [2] was 1 IU/L. The ALP [3] was 1686.4 IU/L, the ALT [3] was 42.2 IU/L and the AST [3] was 67.6 IU/L. It also gave a BUN [3] of 18.4 mg/dL, a CRE [3] of 0.2 mg/dL and a DBIL [3] of 0.012 mg/dL. For the same compound, the GLC [3] was 193.4 mg/dL, the IP [3] was 7.4 mg/dL and the K [3] was 4.4 meq/L. The LDH [3] was 70.2 IU/L, the Na [3] was 142.6 meq/L and the PL [3] was 150.2 mg/dL. For the same compound, the RALB [3] was 2.7 g/dL, the TBIL [3] was 0.024 mg/dL and the TC [3] was 73 mg/dL. The TP [3] was 6 g/dL, the gamma-GTP [3] was 1.2 IU/L and the ALP [4] was 1247.4 IU/L. The ALT [4] was 37.8 IU/L, the AST [4] was 62 IU/L and the BUN [4] was 16.4 mg/dL. It also gave a CRE [4] of 0.2 mg/dL, a DBIL [4] of 0.02 mg/dL and a GLC [4] of 173.6 mg/dL. The IP [4] was 5.6 mg/dL, the K [4] was 4 meq/L and the LDH [4] was 53 IU/L. It also gave a Na [4] of 144 meq/L, a PL [4] of 147.6 mg/dL and an RALB [4] of 2.8 g/dL. For the same compound, the TBIL [4] was 0.03 mg/dL, the TC [4] was 74 mg/dL and the TG [4] was 154.8 mg/dL. It also gave a TP [4] of 6.3 g/dL and a gamma-GTP [4] of 1.2 IU/L.
